Assay results reported in US6737383B1, “Herbicidal oxadiazolidines” (priority 1999, dated 2004).

Experiments:
[1] = system: bedstraw; assay: Test B pre/postemergence bedstraw; type: in vivo, Galium aparine
In short: (§1)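 Herbicidal effect was estimated by eye on a ten-point control scale after plants spent twelve to sixteen days in a greenhouse following soil or foliar treatment. Foliar sprays targeted plants at one to four leaves; all doses were formulated in a non-phytotoxic solvent with surfactant.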

[2] = system: blackgrass; assay: Test B pre/postemergence blackgrass; type: in vivo, Alopecurus myosuroides
In short: as §1

[3] = system: surinam grass; assay: Test B pre/postemergence surinam grass; type: in vivo, Brachiaria decumbens
In short: as §1

[4] = system: smallflower flatsedge; assay: Test B flood test smallflower flatsedge; type: in vivo, Cyperus difformis; conditions: for Plant response rating, S. Flatsedge (0 to 10 scale, 0 is no effect, 10 is complete control) / S. Flatsedge plant response rating (0 to 10 scale, 0 is no effect, 10 is complete control): visual evaluation after twelve to sixteen days; for S. Flatsedge plant response rating (0 to 10 scale, 0 is no effect, 10 is complete control): under heading Pre-emergence
In short: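 Flood test on plants grown to the 2-leaf stage; treated plants kept in greenhouse twelve to sixteen days, then visually rated against controls on a 0 (no effect) to 10 (complete control) scale.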

[5] = Postemergence, Rate 125 g/ha, scale of 0 to 10 where 0 is no effect and 10 is complete control
[6] = Postemergence, Rate 250 g/ha, scale of 0 to 10, 0 is no effect, 10 is complete control
[7] = Rate 500 g/ha, Postemergence, scale 0 to 10, 0 is no effect, 10 is complete control
[8] = Postemergence, Rate 62 g/ha, scale 0 to 10, 0 is no effect, 10 is complete control
[9] = Preemergence, Rate 62 g/ha, scale of 0 to 10 where 0 is no effect and 10 is complete control
[10] = Preemergence, Rate 125 g/ha, scale of 0 to 10 where 0 is no effect and 10 is complete control
[11] = Preemergence, Rate 250 g/ha, scale 0 to 10 (0 no effect, 10 complete control)
[12] = Preemergence, Rate 500 g/ha, scale of 0 to 10 where 0 is no effect and 10 is complete control
[13] = Rate 62 g/ha, flood test species, Pre-emergence
[14] = Rate 125 g/ha, flood test species
[15] = Rate 250 g/ha, Pre-emergence (flood test species), scale 0 to 10, 0 is no effect, 10 is complete control
[16] = Postemergence, Rate 250 g/ha, scale 0 to 10
[17] = Postemergence, Rate 500 g/ha, scale of 0 to 10 where 0 is no effect and 10 is complete control
[18] = Rate 62 g/ha, Postemergence, scale 0 to 10 (0 no effect, 10 complete control)
[19] = Rate 125 g/ha, Postemergence, scale 0 to 10, 0 is no effect, 10 is complete control
[20] = Preemergence, Rate 250 g/ha, scale 0 to 10, 0 is no effect, 10 is complete control
[21] = Preemergence, Rate 500 g/ha, scale 0 to 10, 0 is no effect, 10 is complete control
[22] = Postemergence, Rate 250 g/ha, scale 0 to 10, 0 no effect, 10 complete control
[23] = Rate 500 g/ha, Pre-emergence, flood test species, scale 0 to 10 (0 no effect, 10 complete control)
[24] = Postemergence, Rate 31 g/ha, visual rating, scale 0 to 10 (0 no effect, 10 complete control)
[25] = Preemergence, Rate 250 g/ha, scale of 0 to 10 where 0 is no effect and 10 is complete control
[26] = Rate 125 g/ha, Postemergence, scale of 0 to 10 where 0 is no effect and 10 is complete control
[27] = Rate 250 g/ha, Postemergence, scale of 0 to 10 where 0 is no effect and 10 is complete control
[28] = Preemergence, Rate 31 g/ha, visual rating, scale 0 to 10 (0 no effect, 10 complete control)
[29] = Rate 62 g/ha, headed Pre-emergence (flood test species), scale 0 to 10 (0 no effect, 10 complete control)
[30] = Rate 125 g/ha, Pre-emergence, flood test species, scale 0 to 10 where 0 is no effect and 10 is complete control
[31] = Rate 250 g/ha, Pre-emergence, flood-test species, scale 0 to 10, 0 is no effect, 10 is complete control
[32] = Rate 500 g/ha, Postemergence, scale 0 to 10, 0 no effect, 10 complete control
[33] = Postemergence, Rate 1000 g/ha, scale 0 to 10 (0 no effect, 10 complete control)
[34] = Preemergence, Rate 125 g/ha, scale 0 to 10 (0 no effect, 10 complete control)
[35] = Preemergence, Rate 500 g/ha, scale 0 (no effect) to 10 (complete control)
[36] = Rate 125 g/ha, Postemergence, scale 0 to 10, 0 no effect, 10 complete control
[37] = Rate 500 g/ha, Postemergence, 0 to 10 scale (0 no effect, 10 complete control)
[38] = Rate 1000 g/ha, Preemergence, scale 0 to 10 (0 no effect, 10 complete control)
[39] = Rate 62 g/ha, Postemergence, scale of 0 to 10 where 0 is no effect and 10 is complete control
[40] = Rate 125 g/ha, Postemergence, scale 0 to 10
[41] = Rate 125 g/ha, Preemergence, scale of 0 to 10 where 0 is no effect and 10 is complete control

CC(C)N(C(=O)n1oc(=O)n(CCC(=O)N(C)C)c1=O)c1ccccc1 [Compound 671]
Bedstraw plant response rating [1, 5]: 0 | Bedstraw plant response rating [1, 6]: 0 | Bedstraw plant response rating [1, 7]: 0 | Plant response rating, Blackgrass [2, 8]: 0 | Blackgrass plant response rating [2, 5]: 6 | Blackgrass plant response rating [2, 6]: 8 | Blackgrass plant response rating [2, 9]: 5 | Plant response rating, Blackgrass [2, 10]: 7 | Plant response rating, Blackgrass [2, 11]: 8 | Plant response rating, Blackgrass [2, 12]: 10 | Blackgrass plant response rating [2, 7]: 8 | Plant response rating, B. signalgrass [3, 8]: 0 | Plant response rating, B. signalgrass [3, 5]: 1 | B. signalgrass plant response rating [3, 6]: 6 | B. signalgrass plant response rating [3, 9]: 4 | Plant response rating, B. signalgrass [3, 10]: 6 | Plant response rating, B. signalgrass [3, 11]: 7 | Plant response rating, B. signalgrass [3, 12]: 9 | B. signalgrass plant response rating [3, 7]: 8 | Plant response rating, S. Flatsedge (0 to 10 scale, 0 is no effect, 10 is complete control) [4, 13]: 0 | S. Flatsedge plant response rating (0 to 10 scale, 0 is no effect, 10 is complete control) [4, 14]: 0 | S. Flatsedge plant response rating [4, 15]: 0 | S. Flatsedge plant response rating ([4]; Rate 500 g/ha, Pre-emergence section of Table B, 0 to 10 scale (0 no effect, 10 complete control)): 0

CC(C)N(C(=O)n1oc(=O)n(C(C)C(=O)N(C)C)c1=O)c1ccc(Cl)cc1 (stereo not drawn) [Compound 480]
Bedstraw plant response rating [1, 16]: 0 | Bedstraw plant response rating [1, 17]: 0 | Bedstraw plant response rating [1, 18]: 0 | Bedstraw plant response rating [1, 19]: 0 | Blackgrass plant response rating [2, 16]: 3 | Blackgrass plant response rating [2, 17]: 8 | Plant response rating, Blackgrass [2, 9]: 3 | Plant response rating, Blackgrass [2, 10]: 5 | Blackgrass plant response rating [2, 20]: 8 | Blackgrass plant response rating [2, 21]: 9 | Blackgrass plant response rating [2, 18]: 0 | Blackgrass plant response rating [2, 19]: 3 | B. signalgrass plant response rating [3, 22]: 5 | B. signalgrass plant response rating [3, 17]: 6 | Plant response rating, B. signalgrass [3, 9]: 0 | Plant response rating, B. signalgrass [3, 10]: 4 | B. signalgrass plant response rating [3, 20]: 7 | B. signalgrass plant response rating [3, 21]: 9 | B. signalgrass plant response rating [3, 18]: 0 | B. signalgrass plant response rating [3, 19]: 3 | Plant response rating, S. Flatsedge (0 to 10 scale, 0 is no effect, 10 is complete control) [4, 13]: 0 | S. Flatsedge plant response rating (0 to 10 scale, 0 is no effect, 10 is complete control) [4, 14]: 0 | S. Flatsedge plant response rating [4, 15]: 0 | S. Flatsedge plant response rating [4, 23]: 0

Cc1cccc(C)c1-n1c(=O)on(C(=O)N(c2ccc(Cl)cc2Cl)C2CCC2)c1=O [Compound 318]
Bedstraw plant response rating [1, 24]: 0 | Bedstraw plant response rating (0 to 10 scale) ([1]; Preemergence, Rate 125 g/ha): 0 | Bedstraw plant response rating [1, 25]: 0 | Bedstraw plant response rating [1, 18]: 0 | Bedstraw plant response rating [1, 26]: 0 | Plant response rating, Bedstraw [1, 27]: 0 | Blackgrass plant response rating [2, 24]: 0 | Blackgrass plant response rating [2, 28]: 0 | Blackgrass plant response rating [2, 9]: 0 | Blackgrass plant response rating (0 to 10 scale) ([2]; Preemergence, Rate 125 g/ha): 0 | Blackgrass plant response rating [2, 25]: 0 | Blackgrass plant response rating [2, 18]: 0 | Blackgrass plant response rating [2, 26]: 0 | Plant response rating, Blackgrass [2, 27]: 0 | B. signalgrass plant response rating [3, 24]: 0 | B. signalgrass plant response rating [3, 28]: 0 | B. signalgrass plant response rating [3, 9]: 0 | B. signalgrass plant response rating (0 to 10 scale, 0 is no effect, 10 is complete control) ([3]; Preemergence, Rate 125 g/ha): 0 | B. signalgrass plant response rating [3, 25]: 0 | B. signalgrass plant response rating [3, 18]: 0 | B. signalgrass plant response rating [3, 26]: 0 | Plant response rating, B. signalgrass [3, 27]: 0 | S. Flatsedge plant response rating ([4]; Rate 31 g/ha, Pre-emergence section (flood test species), scale 0 to 10): 0 | S. Flatsedge plant response rating [4, 29]: 0 | S. Flatsedge plant response rating [4, 30]: 0 | S. Flatsedge plant response rating [4, 31]: 0

CC(C)N(C(=O)n1oc(=O)n(C2CCCCO2)c1=O)c1ccc(F)cc1 (stereo not drawn) [Compound 311]
Bedstraw plant response rating [1, 9]: 0 | Bedstraw plant response rating (0 to 10 scale) ([1]; Preemergence, Rate 125 g/ha): 0 | Bedstraw plant response rating [1, 25]: 0 | Bedstraw plant response rating [1, 12]: 0 | Bedstraw plant response rating [1, 18]: 0 | Bedstraw plant response rating [1, 26]: 0 | Plant response rating, Bedstraw [1, 27]: 0 | Bedstraw plant response rating [1, 32]: 2 | Blackgrass plant response rating [2, 9]: 0 | Blackgrass plant response rating (0 to 10 scale) ([2]; Preemergence, Rate 125 g/ha): 0 | Blackgrass plant response rating [2, 25]: 0 | Blackgrass plant response rating [2, 12]: 0 | Blackgrass plant response rating [2, 18]: 0 | Blackgrass plant response rating [2, 26]: 0 | Plant response rating, Blackgrass [2, 27]: 0 | Blackgrass plant response rating [2, 32]: 0 | B. signalgrass plant response rating [3, 9]: 0 | B. signalgrass plant response rating (0 to 10 scale, 0 is no effect, 10 is complete control) ([3]; Preemergence, Rate 125 g/ha): 0 | B. signalgrass plant response rating [3, 25]: 0 | B. signalgrass plant response rating [3, 12]: 0 | B. signalgrass plant response rating [3, 18]: 0 | B. signalgrass plant response rating [3, 26]: 0 | Plant response rating, B. signalgrass [3, 27]: 0 | B. signalgrass plant response rating [3, 32]: 0 | S. Flatsedge plant response rating [4, 29]: 0 | S. Flatsedge plant response rating [4, 30]: 0 | S. Flatsedge plant response rating [4, 31]: 0 | S. Flatsedge plant response rating [4, 23]: 0

COc1ccc(-n2c(=O)on(C(=O)N(C3=CCOCC3)C(C)C)c2=O)cc1 [Compound 6]
Bedstraw plant response rating [1, 22]: 0 | Bedstraw plant response rating [1, 33]: 3 | Plant response rating, Bedstraw [1, 34]: 0 | Plant response rating, Bedstraw [1, 25]: 0 | Bedstraw plant response rating [1, 35]: 0 | Bedstraw plant response rating [1, 36]: 0 | Bedstraw plant response rating [1, 37]: 0 | Plant response rating, Bedstraw [1, 38]: 0 | Blackgrass plant response rating [2, 22]: 7 | Blackgrass plant response rating [2, 33]: 7 | Plant response rating, Blackgrass [2, 34]: 0 | Plant response rating, Blackgrass [2, 25]: 0 | Blackgrass plant response rating [2, 35]: 2 | Blackgrass plant response rating [2, 36]: 4 | Blackgrass plant response rating [2, 37]: 7 | Plant response rating, Blackgrass [2, 38]: 7 | B. signalgrass plant response rating [3, 22]: 2 | B. signalgrass plant response rating [3, 33]: 7 | Plant response rating, B. signalgrass [3, 34]: 0 | Plant response rating, B. signalgrass [3, 25]: 0 | B. signalgrass plant response rating [3, 35]: 0 | B. signalgrass plant response rating [3, 36]: 0 | B. signalgrass plant response rating [3, 37]: 5 | Plant response rating, B. signalgrass [3, 38]: 5 | S. Flatsedge plant response rating [4, 33]: 3 | S. Flatsedge plant response rating ([4]; Rate 125 g/ha, Postemergence section (flood test species), scale 0 to 10, 0 no effect, 10 complete control): 0 | S. Flatsedge plant response rating ([4]; flood test, listed under Postemergence, Rate 250 g/ha, scale 0 to 10, 0 no effect, 10 complete control): 0

Cc1ccccc1-n1c(=O)on(C(=O)N(c2ccc(N(C)C)cc2)C(C)C)c1=O [Compound 237]
Bedstraw plant response rating [1, 9]: 0 | Bedstraw plant response rating [1, 25]: 0 | Plant response rating, Bedstraw [1, 12]: 0 | Bedstraw plant response rating [1, 39]: 0 | Bedstraw plant response rating [1, 40]: 0 | Bedstraw plant response rating [1, 41]: 0 | Plant response rating (0 to 10; 0 is no effect, 10 is complete control), Bedstraw ([1]; Rate 250 g/ha, Postemergence): 2 | Bedstraw plant response rating [1, 32]: 3 | Blackgrass plant response rating [2, 9]: 0 | Blackgrass plant response rating [2, 25]: 0 | Plant response rating, Blackgrass [2, 12]: 0 | Blackgrass plant response rating [2, 39]: 0 | Blackgrass plant response rating [2, 40]: 0 | Blackgrass plant response rating [2, 41]: 0 | Plant response rating (0 to 10; 0 is no effect, 10 is complete control), Blackgrass ([2]; Rate 250 g/ha, Postemergence): 0 | Blackgrass plant response rating [2, 32]: 0 | B. signalgrass plant response rating [3, 9]: 0 | B. signalgrass plant response rating [3, 20]: 0 | Plant response rating, B. signalgrass [3, 12]: 0 | B. signalgrass plant response rating [3, 39]: 0 | B. signalgrass plant response rating ([3]; Rate 125 g/ha, Postemergence, scale 0 (no effect) to 10 (complete control)): 0 | B. signalgrass plant response rating [3, 41]: 0 | Plant response rating (0 to 10; 0 is no effect, 10 is complete control), B. signalgrass ([3]; Rate 250 g/ha, Postemergence): 0 | B. signalgrass plant response rating [3, 32]: 0 | S. Flatsedge plant response rating [4, 29]: 0 | S. Flatsedge plant response rating [4, 30]: 0 | S. Flatsedge plant response rating [4, 31]: 0 | S. Flatsedge plant response rating [4, 23]: 0
